Results: patent US5369126A, “Nonatetraenoic acid derivative for use in treating acne” (Hoffmann-La Roche Inc., priority 1993, dated 1994)
Like-named read-outs stand apart in the source and are kept apart here.

Tests used:
[1] = tested on: human sebaceous cells (sebocytes); assay: Inhibition of human sebocyte proliferation in vitro; type: cell-based; settings: read-out: ED50, inhibition of human sebocyte proliferation in vitro
Experimental: The cells are cultured in Iscove's medium containing 10% fetal calf serum and 4 μg/ml dexamethasone.
Cells are plated in medium without the test compound and then given test compound in fresh medium 24-48 hours after the initial plating. The cultures are given fresh medium containing the test compound, every 48 hours. On the day of harvesting, the cultures are rinsed with 0.03% EDTA in PBS to remove only the 3T3 fibroblasts, followed by incubation in 0.05% trypsin/0.03% EDTA. The cells are suspended, mixed vigorously to prepare a single cell suspension and counted in a hemocytometer.
All test compounds are handled in the following manner. Stock solutions are made up as 10^-2 M solutions in DMSO and stored at -20° C. in the dark. Solutions are never used after one month of storage. During experimental use, the solutions, which have been aliquoted, are brought to room temperature and used by diluting directly into complete medium to the appropriate concentration.

[2] = tested on: hamster ear sebaceous glands; assay: Hamster ear sebaceous gland assay, oral dosing; type: in vivo, Golden Syrian hamster (male); settings: 4 weeks
Experimental: Charles River Golden Syrian male hamsters, weighing between 150 to 160 grams, were housed for one month after receipt before dosing with compounds. […] Fresh solutions were made up weekly.
Hamsters were given 0.2 ml of drug solution via oral intubation. Animals were dosed daily for five days, rested for two days, and dosed again for five days until 20 doses were given. Hamsters were weighed at the beginning and end of the dosing regimen.
Hamsters were sacrificed by CO2 inhalation, and the ears removed for histological evaluation. One ear was fixed with 10% buffered formalin, processed for paraffin embedding, sectioned, and stained with hematoxylin and eosin (H&E). The area of sebaceous glands in cross-sections of hamster ears was examined by image analysis using a Leitz TAS Plus system.
Data is given as the average area of 30-40 sebaceous glands as percent of the control (solvent-treated) sections.

rhino mouse utricles [3] = assay: Rhino mouse utricle assay, topical dosing; type: in vivo; settings: 3 weeks, vs solvent-treated control
Experimental: (§1) Male and female rhino mice were weighed prior to the start of an experiment. For topical studies, test compounds are dissolved in 100% acetone and 100 μl applied to the dorsa of the mice five times a week, once daily, for three weeks. For oral studies, test compounds were dissolved in 100% propylene glycol and 100 μl given by oral intubation 5 times a week, once daily, for three weeks. Final body weights were recorded at the time of sacrifice, done by CO2 inhalation. A flap of skin from the dorsa was cut out and processed by histological methods to produce a whole mount of the tissue. Utricle size was measured by image analysis using either the Leitz TAS Plus system or the Ultimage system on a modified MACINTOSH computer. Data is given as the % change from solvent-treated control tissue (Tables 3 and 4).

rhino mouse utricles [4] = assay: Rhino mouse utricle assay, oral dosing; type: in vivo; settings: 3 weeks, vs solvent-treated control
Experimental: as §1

[5] = Toxicity observed in the acne models of Examples 2-4; type: in vivo
Experimental: The compound of the invention was tested as described in Examples 2-4, below, in several acne models.

human sebaceous glands = settings: Landthaler et al., 1980; cited from earlier work
acne = settings: Farrell 1980; Hammerstein 1975; Lyons 1982; Weissman 1985; cited from earlier work
[6] = in vivo; cited from earlier work
[7] = tested on: Syrian hamster ear sebaceous gland; settings: Plewig et al., 1981; cited from earlier work
[8] = Experiment 2, oral 0.5 mg/kg, vs solvent-treated control
[9] = Experiment 2, oral 2.5 mg/kg, vs solvent-treated control
[10] = Experiment 2, oral 5 mg/kg, vs solvent-treated control
[11] = Experiment 2, oral 10 mg/kg, vs solvent-treated control
[12] = Experiment 1, topical 0.01 % solution in acetone
[13] = Experiment 1, topical 0.1 % solution in acetone
[14] = Experiment 2, topical 0.001 % solution in acetone
[15] = Experiment 2, topical 0.01 % solution in acetone
[16] = Experiment 2, topical 0.1 % solution in acetone
[17] = oral 0.25 mg/kg in propylene glycol
[18] = oral 1.25 mg/kg in propylene glycol
[19] = oral 5 mg/kg in propylene glycol

CCCCCCCCCOc1c(C)cc(C)cc1/C=C/C(C)=C/C=C/C(C)=C/C(=O)O [Compound I, (all-E)-3,7-dimethyl-9-[3,5-dimethyl-2-(nonyloxy)-phenyl]-2,4,6,8-nonatetraenoic acid]
IC50 ([1]; amount necessary to inhibit proliferation by 50% vs diluent-treated control, tested at 10^-6 to 10^-9 M): 10 nM
% Decrease, hamster ear sebaceous gland size ([2]; Experiment 1, oral 0.5 mg/kg, vs solvent-treated control): -19%
% Decrease, hamster ear sebaceous gland size ([2]; Experiment 1, oral 1.5 mg/kg, vs solvent-treated control): -27%
% Decrease, hamster ear sebaceous gland size ([2]; Experiment 1, oral 5 mg/kg, vs solvent-treated control): -33%
% Decrease, hamster ear sebaceous gland size [2, 8]: -11%
% Decrease, hamster ear sebaceous gland size [2, 9]: -18%
% Decrease, hamster ear sebaceous gland size [2, 10]: -24%
% Decrease, hamster ear sebaceous gland size [2, 11]: -33%
% Decrease, hamster ear sebaceous gland size ([2]; Experiment 3a, vehicle = Propylene Glycol, oral 0.5 mg/kg): -19%
% Decrease, hamster ear sebaceous gland size ([2]; Experiment 3a, vehicle = Propylene Glycol, oral 1.6 mg/kg): -27%
% Decrease, hamster ear sebaceous gland size ([2]; Experiment 3a, vehicle = Propylene Glycol, oral 6 mg/kg): -33%
% Decrease, hamster ear sebaceous gland size ([2]; Experiment 3b, vehicle = Labrafil, oral 0.6 mg/kg): -18%
% Decrease, hamster ear sebaceous gland size ([2]; Experiment 3b, vehicle = Labrafil, oral 1.6 mg/kg): -26%
% Decrease, hamster ear sebaceous gland size ([2]; Experiment 3b, vehicle = Labrafil, oral 5 mg/kg): -26%
% Decrease, hamster ear sebaceous gland size ([2]; Experiment 3c, vehicle = Tween 80, oral 0.5 mg/kg): -13%
% Decrease, hamster ear sebaceous gland size ([2]; Experiment 3c, vehicle = Tween 80, oral 1.4 mg/kg): -13%
% Decrease, hamster ear sebaceous gland size ([2]; Experiment 3c, vehicle = Tween 80, oral 6 mg/kg): -22%
% Decrease, rhino mouse utricle size (rhino mouse utricles [3]; [12]): -10%
% Decrease, rhino mouse utricle size (rhino mouse utricles [3]; [13]): -42%
% Decrease, rhino mouse utricle size (rhino mouse utricles [3]; [14]): -1%
% Decrease, rhino mouse utricle size (rhino mouse utricles [3]; [15]): -11%
% Decrease, rhino mouse utricle size (rhino mouse utricles [3]; [16]): -30%
% Decrease, rhino mouse utricle size (rhino mouse utricles [4]; [17]): -23%
% Decrease, rhino mouse utricle size (rhino mouse utricles [4]; [18]): -23%
% Decrease, rhino mouse utricle size (rhino mouse utricles [4]; [19]): -28%
toxicity at all doses tested [5]: non-toxic at all doses tested

CC1=C(/C=C/C(C)=C/C=C/C(C)=C\C(=O)O)C(C)(C)CCC1 [13-cis retinoic acid, reference compound]
IC50 [1]: 50 nM
% Decrease, hamster ear sebaceous gland size [2, 8]: -13%
% Decrease, hamster ear sebaceous gland size [2, 9]: -24%
% Decrease, hamster ear sebaceous gland size [2, 10]: -34%
% Decrease, hamster ear sebaceous gland size [2, 11]: -30%
% Decrease, rhino mouse utricle size (rhino mouse utricles [3]; [12]): -44%
% Decrease, rhino mouse utricle size (rhino mouse utricles [3]; [13]): -55%
% Decrease, rhino mouse utricle size (rhino mouse utricles [3]; [14]): -27%
% Decrease, rhino mouse utricle size (rhino mouse utricles [3]; [15]): -58%
% Decrease, rhino mouse utricle size (rhino mouse utricles [3]; [16]): -61%
% Decrease, rhino mouse utricle size (rhino mouse utricles [4]; [17]): -19%
% Decrease, rhino mouse utricle size (rhino mouse utricles [4]; [18]): -39%
% Decrease, rhino mouse utricle size (rhino mouse utricles [4]; [19]): -47%
reduction of the size of human sebaceous glands (human sebaceous glands): up to 90%
effect on sebum production (acne): reduce sebum production
effect on severity of acne (acne): reduce the severity of acne
side effects [6]: deleterious side effects such as hypervitaminosis A
sensitivity of Syrian hamster ear sebaceous gland [7]: sensitive

CC(=O)S[C@@H]1CC2=CC(=O)CC[C@]2(C)[C@H]2CC[C@@]3(C)[C@@H](CC[C@@]34CCC(=O)O4)[C@H]12 [spironolactone]
effect on sebum production (acne): reduce sebum production
effect on severity of acne (acne): reduce the severity of acne

CC(=O)O[C@]1(C(C)=O)CC[C@H]2[C@@H]3C=C(Cl)C4=CC(=O)[C@@H]5C[C@@H]5[C@]4(C)[C@H]3CC[C@@]21C [cyproterone acetate]
effect on sebum production (acne): reduce sebum production
effect on severity of acne (acne): reduce the severity of acne
